Data from paper PMC3481288 (The Journal of Biological Chemistry, 2012).

Molecular target: T1, PBP2ALGA (Staphylococcus aureus, UniProt F4NA57)
T1 sequence (F4NA57 23-665 limits assumed): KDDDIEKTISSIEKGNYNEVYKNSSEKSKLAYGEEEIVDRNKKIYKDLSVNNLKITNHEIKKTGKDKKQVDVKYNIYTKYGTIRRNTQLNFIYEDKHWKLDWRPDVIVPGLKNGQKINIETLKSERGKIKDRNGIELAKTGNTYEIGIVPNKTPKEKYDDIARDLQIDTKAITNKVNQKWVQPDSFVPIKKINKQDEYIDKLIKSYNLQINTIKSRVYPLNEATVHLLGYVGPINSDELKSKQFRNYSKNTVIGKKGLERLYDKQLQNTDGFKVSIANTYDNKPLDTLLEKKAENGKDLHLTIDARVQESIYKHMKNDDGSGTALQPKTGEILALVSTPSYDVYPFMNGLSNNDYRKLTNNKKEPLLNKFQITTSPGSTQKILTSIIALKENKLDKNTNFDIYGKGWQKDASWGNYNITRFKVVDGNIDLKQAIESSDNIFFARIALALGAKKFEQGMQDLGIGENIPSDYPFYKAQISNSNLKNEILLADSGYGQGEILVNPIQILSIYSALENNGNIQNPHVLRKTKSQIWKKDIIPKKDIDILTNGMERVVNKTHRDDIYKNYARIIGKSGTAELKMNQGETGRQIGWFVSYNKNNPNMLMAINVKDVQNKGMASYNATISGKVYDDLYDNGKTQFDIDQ
Experiment: Bocillin FL competition, SDS-PAGE fluorescence
Type: binding

Row | SMILES | IC50 [µM]
1 | CO[C@@]1(NC(=O)Cc2cccs2)C(=O)N2C(C(=O)O)=C(COC(N)=O)CS[C@@H]21 [cefoxitin] | 501
2 | Cc1onc(-c2ccccc2)c1C(=O)N[C@@H]1C(=O)N2[C@@H]1SC(C)(C)[C@@H]2C(=O)O [oxacillin] | 212
